This is an account of results in US20070287666A1, “Modulator of gamma-secretase” (priority 2006, published 2007).

The subject of one data set is ε-secretase. Briefly: Cadherin processing assay. The data set is classed as biochemical. The conditions noted are these: in words. The procedure: Notch and cadherin cleavage assays were performed as described previously (27, 29).
Cadherin processing assay: Assays were performed as previously described (29). Briefly, cells were resuspended in 0.5 ml/35-mm dish of hypotonic buffer (10 mM MOPS, pH 7.0, 10 mM KCl) and homogenized on ice. A post-nuclear supernatant was prepared by centrifugation at 1000×g for 15 minutes at 4° C. Crude membranes were isolated from the post-nuclear supernatant by centrifugation at 16,000×g for 40 minutes at 4° C. The membranes were then resuspended in 25 μl of assay buffer (150 mM sodium citrate, pH 6.4, 1× Complete protease inhibitor cocktail, Roche), and incubated at 37° C. for 4 hours in the presence or absence of γ-secretase inhibitor (L-685,458, 1 μM). Samples were then analyzed by immunoblotting using C32 anti-N-cadherin and C36 anti-E-cadherin antibodies (BD Transduction Laboratories).

Data set [1] deals with γ-secretase. Nature of the data set: Aβ assay (ELISA, immunoprecipitation-western blotting) of conditioned medium from whole cells. The format is cell-based, human. The conditions noted are these: whole cells or cell-free γ-secretase assays; in words. The procedure: Aβ40 and Aβ42 levels were measured by ELISA and immunoprecipitation-western blotting as described previously, with the use of 12-24-h-conditioned medium collected from native HEK-293 cells or from HEK-293 cells stably overexpressing APP (APPswedish or APPwt) (3,24). They were resuspended in Assay Buffer (10 mM KOAc, 1.5 mM MgCl2, protease inhibitors (Roche), 75 mM sodium citrate, pH 6.4) and incubated at 0° C. or 37° C. for 2 or 4 hours (24). CHAPSO-solubilized membrane fractions from above cells were subjected to cell free γ-secretase assay as described below without addition of the C100-Flag substrate. Following adjustment to RIPA buffer, Aβ were captured by immmunoprecipitation with 6E10 antibody (Signet) and immunoblotted as described previously (24). ε-stubs were detected by Western blotting with anti-APP-CT antibody (Sigma).

A further data set has as its system TMP21. Briefly: Western blotting of target protein expression after siRNA knockdown. The format is cell-based, human. The conditions noted are these: whole cells; in words. As to the method:
siRNA-based knockdowns of target proteins were performed as described, in HEK-293 or blastocyst-derived cells (30). The oligonucleotide sequences are available in Supplementary Information.
siRNA-based knockdowns of target proteins were carried out as described (30). […] As negative controls, we used a mixture of four pooled scrambled siRNAs and mock transfections without siRNA. The expression level of target proteins was monitored by Western blotting with polyclonal anti-TMP21 or anti-p24a antibodies. Each of the individual oligonucleotide pairs where independently shown to suppress the relevant target protein (FIG. 8).
On the technique in general: In western blotting, separated proteins are transferred to a membrane and probed.

Data set [2] concerns the target T1, γ-secretase (Homo sapiens, UniProt P49768). Briefly: γ-secretase reconstituted in yeast, APPC1-55/Gal4 lacZ reporter assay. The data set is classed as cell-based, S. cerevisiae. More on the design: expressed in transfected cells; host or cells: S. cerevisiae (strains PMY1 and DEY1). The conditions noted are these: co-expression with PS1, NCT, APH-1, PEN-2; wt or V717I APP reporter; in words. An excerpt: Core γ-secretase enzyme activity of the mammalian CNS was reconstituted in S. cerevisiae by co-expression of human presenilin 1 (PS1), nicastrin (NCT), APH-1 and PEN-2 in accordance with the method described by Edbauer (12), with activity measured via endoproteolytic release of a Gal4 transcriptional activator from an APPC1-55 juxtamembrane region and trans activation of a β-galactosidase reporter gene. While a starting configuration performed slightly above the baseline of cells lacking γ-secretase subunits, non-fermentable carbon sources favoring oxidative metabolism increased output up to 100-fold and allowed profiling of the system. As in mammalian cells, activity was greater with wt PS1 than wt PS2, sensitive to missense mutations of APP substrate near the Aβ42 site, and was modulated by the membrane protein TMP21.
Besides the production of Aβ-related peptide fragments identified by mass spectroscopy, enzyme activity was measured via a transcriptional reporter assay wherein endoproteolysis of a membrane-tethered APPC1-55/Gal4 fusion protein results in the release of a Gal4 transcriptional activator capable of driving a reporter gene (lacZ) with a colorimetric output. Effect of TMP21, Erv25p and Emp24p on reporter activity and PS1 processing
On the technique in general: A reporter such as luciferase makes a cellular process visible.

Data set [3] addresses T1, γ-secretase. Nature of the data set: Cell-free γ-secretase assay with immunopurified PS1 complexes and C100-Flag substrate. The format is biochemical. More on the design: PS1 complex was isolated by immunoprecipitation from CHAPSO extracted membranes; endogenous in cells; host or cells: HEK-293 (also SHSY-5Y) CHAPSO-solubilized membranes, anti-PS1 (A4) immunoprecipitate. The conditions noted are these: exogenous protein added to immunopurified TMP21-deficient PS1 complexes; in words. As to the method:
Cell-free γ-secretase assays with endogenous APP were performed on microsome membranes from HEK-293 cells stably over expressing APPswedish with or without TMP21 RNAi treatments as described previously (24). ε-stubs were detected by western blotting with anti-APP-CT antibody (Sigma). Cell-free γ-secretase assay was performed as described (7, 13), with exogenous APP-C100 as the substrate was performed with recombinant APP-C100 peptides, wherein PS1 complex was isolated by immunoprecipitation from CHAPSO extracted membranes and combined with the recombinant C100 substrate and the generation of Aβ is determined by ELISA and AICD production is monitored by western blotting. More particularly, the peptides were generated from a prokaryotic expression vector encoding the C-terminal 100 amino acids (596-695) of human APP (695-residue isoform) followed by Flag and His6 sequences (C100-Flag-His6). This was generated by PCR and cloning into pQE60 (Qiagen). […] The generated Aβ was analyzed by immunoblotting or ELISA (Biosource).
Solubilized γ-secretase was prepared as described (7,13). […] Following addition of the C100-Flag substrate (˜0.5 μM) to 50 μl of the solubilized γ-secretase preparation the reaction mixture was incubated for 6 hrs at 37° C. and Aβ products detected by ELISA and Western blotting. […]

As to `CC(C)C[C@H](NC(=O)[C@H](Cc1ccccc1)C[C@@H](O)[C@H](Cc1ccccc1)NC(=O)OC(C)(C)C)C(=O)N[C@@H](Cc1ccccc1)C(N)=O` [L685,458], in the data set on ε-secretase, the “ε-cleavage of E-cadherin or N-cadherin substrates (CAD/CTF1) to CAD/CTF2” value is reported as “specifically inhibited”. Take “p24a siRNA: p24a siRNA oligos (SEQ ID NO:12, 13) and p24a pooled oligos, Dharmacon (chain 1 AACCGGATGTCCACCATGACT; chain 2 ACAGAGCCATCAACGACAA; bought from Dharmacon, further chemistry not given here)”: the “effect on Aβ production” value with γ-secretase [1] is on record as “no effect”. Further, in the data set on TMP21, the “total cellular TMP21 levels / expression” value was “decrease”.

B1: TMP21: 219-amino-acid type 1 transmembrane protein, member of the p24 cargo-protein family (accession number Q9D1D4); expressed from cDNA (protein, UniProt Q9D1D4 32-219, looked up)
Transmembrane emp24 …: ISFHLPVNSRKCLREEIHKDLLVTGAYEITDQSGGAGGLRTHLKITDSAGHILYAKEDATKGKFAFTTEDYDMFEVCFESKGTGRIPDQLVILDMKHGVEAKNYEEIAKVEKLKPLEVELRRLEDLSESIVNDFAYMKKREEEMRDTNESTNTRVLYFSIFSMFCLIGLATWQVFYLRRFFKAKKLIE
In the case of B1, the “effect on Aβ production” value with γ-secretase [1] is “no discernible effect”. In addition, the lacZ reporter activity result with γ-secretase [2] was “markedly reduced”.

B2: TMP21-Flag: TMP21 tagged at the C terminus with the Flag epitope, immunopurified from HEK-293 cells (protein)
chain: ISFHLPINSRKCLREEIHKDLLVTGAYEISDQSGGAGGLRSHLKITDSAGHILYSKEDATKGKFAFTTEDYDMFEVCFESKGTGRIPDQLVILDMKHGVEAKNYEEIAKVEKLKPLEVELRRLEDLSESIVNDFAYMKKREEEMRDTNESTNTRVLYFSIFSMFCLIGLATWQVFYLRRFFKAKKLIE
modifications: left off: small tags and cut ends
As for B2, the “Aβ production after complementation of TMP21-deficient PS1 complexes” value in the data set with γ-secretase [3] is given as “reverted to normal”.
